Source: ChEMBL document CHEMBL5584262, “Plakevulin A induces apoptosis and suppresses IL-6-induced STAT3 activation in HL60 cells” (Bioorg Med Chem Lett, 2024)
Active and inactive are the calls of the source. No cut-off for these calls is given here. *1 amine or outer side, *2 acyl side, *3 side chain or, on linkers, in order; H or OH if unused. Where a SMILES comes first, the peptide text is derived from it. Bridges are numbered along the chain shown (N, C = ends). Roman numbers before positions name the chains, in order. [ ]: non-standard residue; d: D form. Actinocin(9to1) = Cc1c2oc3c(C)ccc(C(=O)[*:1])c3nc-2c(C(=O)[*:2])c(N)c1=O; NMeV = CN[C@H](C(=O)O)C(C)C; Sar = CNCC(=O)O

Experiments:
[1] = system: HL-60; test: Induction of apoptosis in human HL-60 cells assessed as DNA fragmentation at 1 uM treated for 24 hrs by agarose gel electrophoresis; assay type: functional, cell-based
[2] = system: HL-60; test: Induction of apoptosis in Z-VAD-fmk-treated human HL-60 cells assessed as DNA fragmentation at 1 uM treated for 24 hrs by agarose gel electrophoresis; assay type: functional, cell-based
[3] = system: HL-60; test: Downregulation of IL-6-induced STAT3 phosphorylation in human HL-60 cells pretreated for 24 hrs followed by IL-6 stimulation by Western blot analysis; assay type: functional, cell-based
[4] = system: HL-60; test: Cytotoxicity against human HL-60 cells assessed as inhibition of cell viability incubated for 48 hrs by WST-8 assay; assay type: functional, cell-based; details: HL-60, 48 h
[5] = molecular target: T1, Peroxisomal multifunctional enzyme type 2 (Homo sapiens) (UniProt P51659); test: Binding affinity to HSD17B4 in human HL-60 cell lysate by pull down assay; assay type: subcellular
T1 sequence (whole entry): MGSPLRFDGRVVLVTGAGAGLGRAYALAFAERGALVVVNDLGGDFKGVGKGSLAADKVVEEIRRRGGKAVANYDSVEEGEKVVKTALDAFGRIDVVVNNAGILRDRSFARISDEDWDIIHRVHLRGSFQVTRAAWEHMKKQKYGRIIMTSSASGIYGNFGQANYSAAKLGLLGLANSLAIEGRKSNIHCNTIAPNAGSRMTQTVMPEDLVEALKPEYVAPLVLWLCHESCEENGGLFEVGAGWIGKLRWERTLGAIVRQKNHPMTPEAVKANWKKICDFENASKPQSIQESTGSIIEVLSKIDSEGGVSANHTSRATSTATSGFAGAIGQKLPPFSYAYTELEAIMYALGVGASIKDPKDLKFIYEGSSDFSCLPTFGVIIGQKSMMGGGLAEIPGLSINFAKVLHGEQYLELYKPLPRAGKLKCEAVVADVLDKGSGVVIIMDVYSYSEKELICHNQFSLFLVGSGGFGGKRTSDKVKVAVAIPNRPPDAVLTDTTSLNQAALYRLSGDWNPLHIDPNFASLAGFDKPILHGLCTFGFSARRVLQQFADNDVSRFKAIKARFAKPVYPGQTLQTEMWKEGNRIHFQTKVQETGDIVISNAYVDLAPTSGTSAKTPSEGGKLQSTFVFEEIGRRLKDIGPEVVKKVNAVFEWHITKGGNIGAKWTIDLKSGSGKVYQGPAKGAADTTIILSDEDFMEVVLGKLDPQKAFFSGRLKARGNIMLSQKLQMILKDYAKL

[6] = molecular target: T1, Peroxisomal multifunctional enzyme type 2 (Homo sapiens); test: Binding affinity to HSD17B4 in human HL-60 cell lysate by Western blot analysis; assay type: subcellular
[7] = system: HeLa; test: Cytotoxicity against human HeLa cells assessed as inhibition of cell viability incubated for 24 hrs by MTT assay; assay type: functional, cell-based
[8] = molecular target: DNA polymerase beta (Rattus norvegicus, UniProt P06766); test: Inhibition of rat DNA polymerase beta using DNA as substrate incubated for 60 mins in presence of […]
[9] = system: HL-60; test: Induction of apoptosis in Z-VAD-fmk-treated human HL-60 cells assessed as inhibition of caspase-3 activation at 5 uM treated for 24 hrs by Ac-DEVD-MCA substrate based analysis; assay type: functional, cell-based
[10] = Inhibition of calf DNA polymerase alpha using DNA as substrate incubated for 60 mins in presence of […]; parameters: species or system Bos taurus
[11] = system: MC3T3-E1; test: Cytotoxicity against mouse MC3T3-E1 cells assessed as inhibition of cell viability incubated for 24 hrs by MTT assay; assay type: functional, cell-based; details: MC3T3-E1, 24 h
[12] = system: HL-60; test: Cytotoxicity against human HL-60 cells assessed as inhibition of cell viability incubated for 24 hrs by MTT assay; assay type: functional, cell-based; details: HL-60, 24 h
[13] = system: HL-60; test: Induction of apoptosis in human HL-60 cells assessed as DNA fragmentation at 5 uM treated for 24 hrs by agarose gel electrophoresis; assay type: functional, cell-based
[14] = system: MRC5; test: Cytotoxicity against human MRC5 cells assessed as inhibition of cell viability incubated for 24 hrs by MTT assay; assay type: functional, cell-based; details: MRC5, 24 h
[15] = system: HL-60; test: Induction of apoptosis in Z-VAD-fmk-treated human HL-60 cells assessed as DNA fragmentation at 5 uM treated for 24 hrs by agarose gel electrophoresis; assay type: functional, cell-based

For Cc1c2oc3c(C)ccc(C(=O)N[C@@H]4C(=O)N[C@H](C(C)C)C(=O)N5CCC[C@H]5C(=O)N(C)CC(=O)N(C)[C@@H](C(C)C)C(=O)O[C@@H]4C)c3nc-2c(C(=O)N[C@@H]2C(=O)N[C@H](C(C)C)C(=O)N3CCC[C@H]3C(=O)N(C)CC(=O)N(C)[C@@H](C(C)C)C(=O)O[C@@H]2C)c(N)c1=O (I: T[dV]P[Sar][NMeV] / II: T[dV]P[Sar][NMeV]; ester I:1-I:C, II:1-II:C; linker I:N-II:N via Actinocin(9to1)), the Activity [1] was “Active” and the Activity [2] was “inactive”.

In the case of CO/C=C(/C(=O)OC)c1ccccc1COc1cc(C(F)(F)F)nc(OC(C)C)n1, the Activity [3] is reported as “Dose-Dependent Effect”.

In the case of CCCCCCCCCCCCCCCC[C@]1(O)C=C[C@H](OC(=O)CCCCCNC(=O)CCCC[C@@H]2SC[C@@H]3NC(=O)N[C@@H]32)[C@H]1C(=O)OC, the IC50 [4] is reported as 5.76 µM, the Activity [5] is reported as “Active” and the Activity [6] is reported as “Active”.

With CCCCCCCCCCCCCCCC[C@]1(O)C=C[C@H](O)[C@H]1C(=O)OC [PLAKEVULIN A] the IC50 [7] was 11.5 µM, the IC50 [8] was 189 µM and the inhibition [9] was “Active”. For the same molecule, the IC50 [10] was 137 µM, the IC50 [11] was 12.4 µM and the Activity [3] was “Dose-Dependent Effect”. For the same molecule, the IC50 [4] was 2.63 µM, the IC50 [12] was 2.02 µM and the Activity [13] was “Active”. The IC50 [14] was greater than 15 µM and the Activity [15] was “inactive”.

With O=C(O)CCCCCNC(=O)CCCC[C@@H]1SC[C@@H]2NC(=O)N[C@@H]21 the Activity [5] was “inactive”.
